From paper PMC3802547 (Molecular bioSystems, 2011) come the findings set out here.

This assay concerns the target LasB (elastase) (Pseudomonas aeruginosa, UniProt P14756). Put plainly: BODIPY-FL casein fluorescence protease assay with purified LasB. The assay is classed as biochemical.

In general, Ki refers to a dissociation constant, usually derived from enzyme kinetics or from competition with a known ligand.

LasB (elastase), sequence (P14756 198-498): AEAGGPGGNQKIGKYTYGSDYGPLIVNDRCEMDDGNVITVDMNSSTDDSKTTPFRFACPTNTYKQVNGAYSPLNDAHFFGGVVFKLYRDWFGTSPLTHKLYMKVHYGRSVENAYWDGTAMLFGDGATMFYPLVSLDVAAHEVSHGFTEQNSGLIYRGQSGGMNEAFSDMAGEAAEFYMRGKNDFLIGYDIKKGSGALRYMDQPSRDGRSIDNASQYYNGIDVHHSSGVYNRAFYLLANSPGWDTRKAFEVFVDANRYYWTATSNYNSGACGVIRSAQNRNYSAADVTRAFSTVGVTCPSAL

As to `CCCCCCC[C@@H]1C[C@H]1CCC(=O)O` [compound 4, lyngbyoic acid], affinity was put at a Ki of 5.4 µM. In other words, the single-digit micromolar range.
